In US20230121325A1, “FAST DISSOLVING PHARMACEUTICAL COMPOSITIONS” (XSPRAY PHARMA AB, priority 2021, published 2023):

Key:
[1] = within and between patients; cited from earlier work
[2] = Food effect analysis of Test Formulation (Fasted Study vs Fed Study); type: in vivo, human; settings: Test Formulation single dose, least-squares geometric mean
Protocol: Objective: The objective of this analysis was to investigate the effect of food on the single-dose PK of Test Formulation using fasted and fed PK data from two studies, referred to as “Fasted Study” and “Fed Study,” respectively below.
Methodology. Since the PK parameters following the oral administration of Test Formulation in fasting and fed conditions were obtained from two different studies (Fasted Study and Fed Study, respectively), the PK data were analyzed using an analysis of variance (ANOVA), which considered the data as if they were collected in a parallel design.
Both studies were fully replicate studies and therefore subjects were dosed with Test Formulation on two occasions. The PK population in this analysis included subjects who received Test Formulation on two occasions; subjects who received Test Formulation only once were not included in this analysis.
In the current analysis, data from the PK population of the Fasted Study and Fed Study were considered “Reference” Treatment and “Test” Treatment, respectively.
For each parameter, the value used for the subject was the geometric mean of the two values that were available for each subject. The use of geometric means is consistent with the assumption that PK parameters are In normally distributed. Subjects with only one period of data were not included in the ANOVA, as this would incorrectly imply that singular data have the same weight as subjects with replicate values for the parameter.
In the Fasted Study, 51 subjects received Test Formulation on at least one occasion under fasting conditions, of whom 44 received Test Formulation on both occasions.
In the Fed Study, 32 subjects received Test Formulation on at least one occasion under fed conditions, of whom 27 received Test Formulation on both occasions.

clinical = settings: human, in vivo, 90 mg

AUC(0-24 h) LSmeans Fed ([2]; fed (n = 27)): 0.413 µg·h/mL | AUC(0-t) ([2]; human, plasma, oral, fasting (n = 44), read-out: AUC(0-24 h) LSmeans Fasted): 0.433 µg·h/mL | AUC(0-inf) ([2]; human, plasma, oral, fasting (n = 44), read-out: AUC(0-∞) LSmeans Fasted): 0.446 µg·h/mL | Cmax ([2]; human, plasma, oral, fasting (n = 44), read-out: Cmax LSmeans Fasted): 0.127 µg/mL | AUC(0-inf) ([2]; human, plasma, oral, fed (n = 27), read-out: AUC(0-∞) LSmeans Fed): 0.431 µg·h/mL | Cmax ([2]; human, plasma, oral, fed (n = 27), read-out: Cmax LSmeans Fed): 0.067 µg/mL | AUC(0-inf) (clinical): 0.434 µg·h/mL | Cmax (clinical): 0.138 µg/mL
SMILES: Cc1nc(Nc2ncc(C(=O)Nc3c(C)cccc3Cl)s2)cc(N2CCN(CCO)CC2)n1 [Dasatinib, dasatinib]
coefficient of variation of AUC [1]: up to 100% | coefficient of variation of Cmax [1]: up to 100%
